“Also recorded” adds a separate entry of the source.

For experiment [1], the target named is T1, Cav1.1 channels (dihydropyridine receptors) (Mus musculus, UniProt Q02789).
T1 construct: endogenous in cells; host or cells: single skeletal muscle fibers isolated from C57 mouse flexor digitorum brevis (FDB) muscle
The experiment in a line: Whole cell voltage-clamp measurement of L-type Ca2+ currents in isolated fdb muscle fibers. Format: cell-based. Particulars: L-type calcium peak current, mouse skeletal muscle fibers, control = maximum current without drug, read-out: % inhibition of Ca^2+ current.

Experiment [2] has as its system fdb muscle fibers. As to conditions: earlier results of the inventors; cited from earlier work.
For experiment [3], the target named is T1, Cav1.1 channels (dihydropyridine receptors). As to conditions: earlier results, stated in words; cited from earlier work.
The test system of experiment [4] is aged mice. The experiment in a line: Incremental strength test (weightlifting) in aged mice. In kind it is in vivo, mouse. As for the experimental part:
The muscle function of aged mice (between 19 and 21 months of age) was assessed with an incremental strength test (weightlifting) and with an incremental treadmill running test. The measurement was made after 12 days of treatment with MP-2 (1 mg/Kg/day) administered via intraperitoneal injection. As a control, vehicle-injected mice were used in the same manner as drug-injected mice. Recovery of muscle function can be observed after treatment. Data were analyzed as the change in test performance at the end of treatment relative to performance at the start of treatment for each mouse. It is observed that the treatment improves the strength parameters more than 4 times with respect to the control. […] The mean±SEM is plotted. N=5 for each group, *: p<0.05
Two functional tests were performed in control (saline-injected) and MP-2-treated (daily intraperitoneal injections of 1 mg/Kg MP-2 for 12 days) mice.

Experiment [5] has as its system fdb muscle fibers. Nature of the experiment: ATP release from fdb muscle fibers after 20 Hz electrical stimulation (luciferin/luciferase). Format: cell-based, mouse. Particulars: pre-incubation 10 μM for 30 min. Here is the method:
Isolation of skeletal muscle fibers was performed from C57BL/J6 mice between 8 and 10 weeks of age. Isolated fibers were obtained from the flexor digitorum brevis (FoB) and Gastrocnemius muscle by enzymatic digestion for 90 min with 400 U/mL type II collagenase (Worthington Biochemicals Corp., Lakewood, NJ, USA) and mechanical dissociation with Pasteur pipettes, as previously described (Casas et.al, 2010). The isolated fibers were seeded in Petri dishes coated with a layer of Matrigel in Dulbecco's modified Eagle's culture medium (DMEM), supplemented with 10% horse serum, 50 U/mL penicillin and […] streptomycin. Cell cultures were used approximately 20 h after the fiber seeding process. All protocols were previously approved by the Bioethics Committee of the Faculty of Medicine of the University of Chile. […]
Extracellular ATP concentrations were determined using the CellTiter-Glo® Luminescent Cell Viability Assay Kit (Promega). […] After incubating for 10 min in the dark at room temperature, the samples were quantified in an FB12 (Berthold) luminometer. […] RNA normalization was preferred over total protein normalization since adult fiber cultures were seeded on a matrigel sheet, which has a large amount of protein and could alter the quantification process. […]

Experiment [6] relates to aged mice. Nature of the experiment: Incremental treadmill running test (endurance) in aged mice. Format: in vivo, mouse. As for the experimental part: The standardization of this test that evaluates resistance and strength was carried out in the treadmill equipment for rodents. The test consists of 5 sessions where the animals were acclimatized for 5 minutes at the equipment's minimum speed of 0.3 Km/h and the number of shots of compressed air that keep the animal trotting is counted. Once the acclimatization process was finished, the animals were evaluated in an incremental test consisting of 2-minute ramps at the minimum speed and then gradually increasing 0.1 Km/h after 2 minutes until the animal could no longer run. This maximum effort test is only performed once per session and is considered finished when the animal reaches the bottom of the ramp and accumulates 10 shots of compressed air in a period of 10 seconds.
The muscle function of aged mice (between 19 and 21 months of age) was assessed with an incremental strength test (weightlifting) and with an incremental treadmill running test. The measurement was made after 12 days of treatment with MP-2 (1 mg/Kg/day) administered via intraperitoneal injection. As a control, vehicle-injected mice were used in the same manner as drug-injected mice. Recovery of muscle function can be observed after treatment. Data were analyzed as the change in test performance at the end of treatment relative to performance at the start of treatment for each mouse. […]

For experiment [7], the system named is muscle fibers of normal mice. Nature of the experiment: qPCR of proinflammatory genes in muscle fibers exposed to extracellular ATP. Format: cell-based, mouse. Particulars: 300 μM extracellular ATP for 2 h. Here is the method:
Total RNA from the isolated muscle fiber culture was extracted using TRIzol (Invitrogen) according to the manufacturer's protocol. The cDNA was obtained by reverse transcription from 1 μg of total RNA, using the enzyme SuperScript II (Invitrogen) according to the manufacturer's protocol. Real-time qPCR assays were performed using a thermocycler (Stratagene Mx300P, Agilent) according to the following protocol. The reaction mix will be given by 1 μL 10×dNTPs, 0.5 μL sense primer (10 pmol/μL), 0.5 μL antisense primer (10 pmol/μL), 4 μL EVA Green (Invitrogen) and 1 μL cDNA. The final volume of the mix was brought to 20 μL by adding nuclease-free water. All primers have an optimal amplification efficiency (between 90-110%). In any case, the analysis of the data was carried out considering a correction of the amplification cycle of each gene according to the amplification efficiency of the primers. The thermocycling conditions were the following: 1 cycle of 12 min at 95° C., followed by 40 cycles of 15 at 95° C. […] The Ct value was determined by the MXPro software when the fluorescence level is 25% higher than the basal fluorescence. […]
Increases in proinflammatory markers have been reported in the muscles of older adults, as part of the process of losing muscle mass. Therefore, the effect of chronic exposure to high levels of extracellular ATP on mRNA levels of proinflammatory genes was evaluated. […]

Setting [8] is: aged mice 19-21 months, 1 mg/Kg/day i.p. for 12 days, change end vs start of treatment.

T1 sequence (Q02789 whole entry): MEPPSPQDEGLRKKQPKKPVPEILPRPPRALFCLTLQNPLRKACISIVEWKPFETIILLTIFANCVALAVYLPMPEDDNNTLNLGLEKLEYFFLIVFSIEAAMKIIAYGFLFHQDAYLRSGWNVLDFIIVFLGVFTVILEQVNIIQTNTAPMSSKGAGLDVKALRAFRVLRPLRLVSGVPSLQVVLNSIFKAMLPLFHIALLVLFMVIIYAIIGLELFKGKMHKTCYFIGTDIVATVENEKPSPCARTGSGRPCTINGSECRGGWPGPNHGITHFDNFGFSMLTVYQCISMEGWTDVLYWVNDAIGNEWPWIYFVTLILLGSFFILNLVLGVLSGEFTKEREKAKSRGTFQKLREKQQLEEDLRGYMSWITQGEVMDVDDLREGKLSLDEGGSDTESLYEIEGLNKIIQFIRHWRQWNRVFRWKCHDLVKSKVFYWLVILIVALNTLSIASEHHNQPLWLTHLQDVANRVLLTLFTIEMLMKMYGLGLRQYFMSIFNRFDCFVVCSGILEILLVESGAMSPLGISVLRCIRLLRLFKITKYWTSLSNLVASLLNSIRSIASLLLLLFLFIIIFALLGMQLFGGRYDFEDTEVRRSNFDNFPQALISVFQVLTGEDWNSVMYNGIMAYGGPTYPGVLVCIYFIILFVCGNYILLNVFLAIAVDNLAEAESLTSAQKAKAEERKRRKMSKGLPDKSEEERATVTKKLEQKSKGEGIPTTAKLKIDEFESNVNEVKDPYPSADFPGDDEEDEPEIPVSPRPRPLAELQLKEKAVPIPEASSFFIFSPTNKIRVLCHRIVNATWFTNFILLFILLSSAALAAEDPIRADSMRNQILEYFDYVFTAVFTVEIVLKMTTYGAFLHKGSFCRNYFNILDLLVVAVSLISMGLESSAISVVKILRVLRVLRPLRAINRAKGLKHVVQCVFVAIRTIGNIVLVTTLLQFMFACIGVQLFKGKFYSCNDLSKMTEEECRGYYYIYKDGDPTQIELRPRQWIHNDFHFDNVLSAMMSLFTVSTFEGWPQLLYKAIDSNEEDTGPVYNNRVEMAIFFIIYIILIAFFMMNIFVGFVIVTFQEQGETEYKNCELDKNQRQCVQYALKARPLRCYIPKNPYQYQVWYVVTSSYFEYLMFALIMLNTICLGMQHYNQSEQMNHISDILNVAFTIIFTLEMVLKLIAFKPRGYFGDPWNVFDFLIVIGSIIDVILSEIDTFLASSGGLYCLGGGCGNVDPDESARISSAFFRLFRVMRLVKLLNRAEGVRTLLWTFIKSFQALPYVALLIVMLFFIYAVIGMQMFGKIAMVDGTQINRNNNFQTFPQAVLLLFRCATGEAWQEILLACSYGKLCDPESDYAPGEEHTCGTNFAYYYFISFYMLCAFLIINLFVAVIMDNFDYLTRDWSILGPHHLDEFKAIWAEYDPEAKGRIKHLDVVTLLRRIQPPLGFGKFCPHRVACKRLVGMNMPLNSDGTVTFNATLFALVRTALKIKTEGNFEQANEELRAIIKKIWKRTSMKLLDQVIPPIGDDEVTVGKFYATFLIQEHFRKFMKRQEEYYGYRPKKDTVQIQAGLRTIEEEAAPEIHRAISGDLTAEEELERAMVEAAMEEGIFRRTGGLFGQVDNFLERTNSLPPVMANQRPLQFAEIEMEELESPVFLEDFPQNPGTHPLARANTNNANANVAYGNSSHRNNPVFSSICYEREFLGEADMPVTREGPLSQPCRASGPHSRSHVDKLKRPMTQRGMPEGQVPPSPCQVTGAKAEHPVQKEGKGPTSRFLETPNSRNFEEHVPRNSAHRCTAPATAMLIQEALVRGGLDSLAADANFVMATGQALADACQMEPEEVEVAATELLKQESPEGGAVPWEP
T1 sequence (Q8R3Z5 whole entry partner): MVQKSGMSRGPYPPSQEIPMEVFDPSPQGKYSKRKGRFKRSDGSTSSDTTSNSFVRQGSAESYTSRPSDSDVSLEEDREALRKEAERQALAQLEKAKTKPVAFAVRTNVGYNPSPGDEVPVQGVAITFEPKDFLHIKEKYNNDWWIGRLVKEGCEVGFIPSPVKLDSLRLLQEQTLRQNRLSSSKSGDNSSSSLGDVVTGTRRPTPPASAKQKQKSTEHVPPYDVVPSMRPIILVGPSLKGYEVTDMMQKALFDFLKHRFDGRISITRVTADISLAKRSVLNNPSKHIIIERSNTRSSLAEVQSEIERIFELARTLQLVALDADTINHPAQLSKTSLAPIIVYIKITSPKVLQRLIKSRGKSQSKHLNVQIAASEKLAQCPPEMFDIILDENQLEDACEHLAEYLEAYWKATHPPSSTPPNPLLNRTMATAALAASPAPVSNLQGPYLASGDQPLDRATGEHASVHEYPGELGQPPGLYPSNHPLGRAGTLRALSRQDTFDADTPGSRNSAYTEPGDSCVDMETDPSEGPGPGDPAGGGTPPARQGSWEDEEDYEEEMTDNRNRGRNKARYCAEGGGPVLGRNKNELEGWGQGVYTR
T1 sequence (O08532 25-1103 partner): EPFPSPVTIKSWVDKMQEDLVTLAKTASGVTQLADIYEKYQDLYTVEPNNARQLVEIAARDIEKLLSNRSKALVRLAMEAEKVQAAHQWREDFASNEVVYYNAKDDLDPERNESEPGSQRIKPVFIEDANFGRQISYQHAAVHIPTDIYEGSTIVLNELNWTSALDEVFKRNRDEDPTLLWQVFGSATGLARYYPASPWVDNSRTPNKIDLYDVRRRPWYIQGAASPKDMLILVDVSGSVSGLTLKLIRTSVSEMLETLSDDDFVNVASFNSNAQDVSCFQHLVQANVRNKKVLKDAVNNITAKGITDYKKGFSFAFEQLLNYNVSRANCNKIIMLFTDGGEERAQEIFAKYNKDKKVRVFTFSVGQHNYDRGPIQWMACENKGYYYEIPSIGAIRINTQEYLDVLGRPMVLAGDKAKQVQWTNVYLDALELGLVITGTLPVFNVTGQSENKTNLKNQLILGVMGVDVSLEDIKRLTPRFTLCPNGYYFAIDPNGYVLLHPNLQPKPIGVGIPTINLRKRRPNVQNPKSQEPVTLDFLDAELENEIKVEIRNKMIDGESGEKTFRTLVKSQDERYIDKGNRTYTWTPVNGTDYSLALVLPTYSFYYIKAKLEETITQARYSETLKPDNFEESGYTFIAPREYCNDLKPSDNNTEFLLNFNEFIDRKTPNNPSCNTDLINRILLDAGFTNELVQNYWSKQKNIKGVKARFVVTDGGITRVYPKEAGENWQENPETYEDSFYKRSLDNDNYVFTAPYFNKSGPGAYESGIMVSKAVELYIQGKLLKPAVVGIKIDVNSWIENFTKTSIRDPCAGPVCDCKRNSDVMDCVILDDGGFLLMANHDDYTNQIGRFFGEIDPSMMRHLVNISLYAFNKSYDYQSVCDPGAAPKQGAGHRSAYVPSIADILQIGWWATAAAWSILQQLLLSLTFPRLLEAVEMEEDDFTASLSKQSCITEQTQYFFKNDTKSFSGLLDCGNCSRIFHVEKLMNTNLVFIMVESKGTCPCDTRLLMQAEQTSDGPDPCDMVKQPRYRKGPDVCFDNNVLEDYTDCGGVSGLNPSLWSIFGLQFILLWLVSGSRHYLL
T1 sequence (O70578 whole entry partner): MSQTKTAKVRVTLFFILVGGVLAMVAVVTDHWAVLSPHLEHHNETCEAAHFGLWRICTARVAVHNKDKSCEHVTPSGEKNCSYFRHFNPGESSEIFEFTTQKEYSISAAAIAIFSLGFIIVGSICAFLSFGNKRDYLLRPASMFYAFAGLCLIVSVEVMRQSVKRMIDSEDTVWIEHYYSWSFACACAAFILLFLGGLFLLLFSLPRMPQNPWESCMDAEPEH

On to `COCCOC(=O)C1=C(C)NC(C)=C(C(=O)OC(C)C)C1c1cccc([N+](=O)[O-])c1` (stereo not drawn) [Nimodipine], for which the inhibition at 10 µM in experiment [1] was 48 ± 10%.

In the case of `COC(=O)C1=C(C)NC(C)=C(C(=O)OCCN(C)Cc2ccccc2)C1c1cccc([N+](=O)[O-])c1` (stereo not drawn) [Nicardipine], the inhibition at 10 µM in experiment [1] is 32.6 ± 8%.

For the molecule `COC(=O)C1=C(C)NC(C)=C([N+](=O)[O-])[C@H]1c1ccccc1C(F)(F)F` [(S)-(−)-BayK-8644], in experiment [2], the “ATP outflow after electrical stimulation of the muscle fiber (earlier work)” value is recorded as “also inhibits ATP release”. Also, the “effect on Ca^2+ current through the DHPR channel (earlier work)” value in experiment [3] is “increases Ca^2+ current”.

Consider `COC(=O)C1=C(C)NC2=C(C(=O)OC2)C1c1ccccc1[N+](=O)[O-]` (stereo not drawn) [MP-2, methyl 2-methyl-4-(2-nitrophenyl)-5-oxo-1,4,5,7-tetrahydrofuro [3,4-b]pyridine-3-carboxylate], for which the “improvement of strength parameters with respect to the control” value in experiment [4] (setting [8]) was “more than 4 times”. Moreover, the “muscle strength in aged mice” value in experiment [4] (aged mice (age>18 months)) is reported as “substantially improves their muscle strength”. Also, the “improvement in weight test (measure of strength)” value in experiment [4] (daily i.p. 1 mg/Kg for 12 days) is 64.4%. Moreover, the “inhibition of ATP outflow induced by 20 Hz electrical stimulation” value in experiment [5] is “inhibits the outflow of ATP; also recorded: indistinguishable from that of nifedipine”; in experiment [5] (listed as MP2), “inhibits in a similar way as nifedipine”. Also, the inhibition at 10 µM in experiment [1] was determined as 50 ± 8%. Besides, in experiment [6] (setting [8]), the “increase in Endurance test (incremental treadmill test) over the control” value is on record as roughly 5 times. Also, the “improvement in treadmill test (measure of resistance)” value in experiment [6] (daily i.p. 1 mg/Kg for 12 days) was found to be 25%.

As to `Nc1ncnc2c1ncn2[C@@H]1O[C@H](COP(=O)(O)OP(=O)(O)OP(=O)(O)O)[C@@H](O)[C@H]1O` [ATP], in experiment [7], the “mRNA levels of proinflammatory genes (TNF-α and IL-6)” value is “increase”.

Turning to `COC(=O)C1=C(C)NC(C)=C(C(=O)OCC(C)C)C1c1ccccc1[N+](=O)[O-]` (stereo not drawn) [Nisoldipine], in experiment [1], the inhibition at 10 µM was 14.3 ± 7%.

As to `CCOC(=O)C1=C(C)NC(C)=C(C(=O)OC)C1c1cccc([N+](=O)[O-])c1` (stereo not drawn) [Nitrendipine], the inhibition at 10 µM in experiment [1] is 47.6 ± 2%.

Usually inhibition stands for the change of the read-out against control, counted positive when it falls.

The values above are taken from patent US20260217727A1, “COMPOUNDS DERIVED FROM DIHYDROPIRIDINES, PHARMACEUTICAL COMPOSITIONS COMPRISING SAID COMPOUNDS AND METHOD OF TREATMENT OF MUSCLE DISORDERS COMPRISING ADMINISTRATION OF SAID COMPOSITIONS” (UNIVERSIDAD DE CHILE, priority 2023, published 2026).
